Source: US5929099A, “Pharmaceutical composition for inhibiting the growth of cancers” (Procter & Gamble Co., priority 1996, dated 1999)
In brackets after ≈: the same amount, converted by molar mass. Read-outs that look alike come from different tables or passages of the source.

Tests used:
[1] = test system: HT29 colon tumor cells; assay: MTT cell viability, colon tumor cells (Table 1); format: cell-based; conditions: Homo sapiens, HT-29, 120 h, approx. 5 days, read-out: EC-50 Result
Protocol: (§1) The following cell culture tests were performed to test the toxicity of the benzimidazole compounds on colon, breast and lung human tumor cells. The viability of the cells were tested by looking at MTT (3-[4,5-dimethylthiazol-2-yl]-2,5-diphenyltetrazolium bromide) reduction. MTT assay is a well known measure of cell viability.
(§2) The colon tumor cells (HT29 from American Type Culture Collection (ATCC)) and the breast cells (MX1 from cell lines from ATCC) were cultured in Eagle's Miminal Essential Medium with 10% fetal bovine serum. The lung tumor cells (A549 from ATCC cell lines) were cultured in Ham's F12 medium with 10% fetal bovine serum.
(§3) The tumor cells were passaged and seeded into culture flasks at the desired cell densities. The culture medium was decanted and the cell sheets were washed twice with phosphate buffered saline (PBS). The cells were trypsinized and triturated prior to seeding the flasks. Unless otherwise indicated the cultures were incubated at 37±1° C. in a humidified atmosphere of 5±1% carbon dioxide in air. The cultures were incubated until they were 50-80% confluent.
(§4) The cells were subcultured when the flasks were subconfluent. The medium was aspirated from the flasks and the cell sheets rinsed twice with PBS. Next, the Trypsin Solution was added to each flask to cover the cell sheet. The Trypsin Solution was removed after 30-60 seconds and the flasks were incubated at room temperature for two to six minutes. When 90% of the cells became dislodged, growth medium was added. The cells were removed by trituration and transferred to a sterile centrifuge tube. The concentration of cells in the suspension was determined, and an appropriate dilution was made to obtain a density of 5000 cells/ml. The cells were subcultured into the designated wells of the 96-well bioassay plates (200 microliter cell suspension per well). PBS was added to all the remaining wells to maintain humidity. The plates were then incubated overnight before test article treatment.
(§5) Each dose of test article was tested by treating quadruplicate wells of cultures with 100 microliter of each dilution. Those wells designated as solvent controls received an additional 100 microliter of methanol control; negative controls wells received an additional 100 microliters of treatment medium. PBS was added to the remaining wells not treated with test article or medium. The plates were then incubated for approximately 5 days.
(§6) At the end of the 5 day incubation, each dose group was examined microscopically to assess toxicity. A 0.5 mg/ml dilution of MTT was made in treatment medium, and the dilution was filtered through a 0.45 micrometer filter to remove undissolved crystals. The medium was decanted from the wells of the bioassy plates. Immediately thereafter, […] of the filtered MTT solution was added to all test wells except for the two untreated blank test wells. The two blank wells received 200 microliters of treatment medium. The plates were returned to the incubator for about 3 hours. After incubation, the MTT containing medium was decanted. […] was added to each well and the plates were shaken at room temperature for about 2 hours.
(§7) The absorbance at 550 mn (OD550) of each well was measured with a Molecular Devices (Menlo Park, Calif.) VMax plate reader.
(§8) The mean OD550 of the solvent control wells and that of each test article dilution, and that of each of the blank wells and the positive control were calculated. The mean OD550 of the blank wells was subtracted from the mean of the solvent control wells, and test article wells, respectively to give the corresponding mean OD550. [formula]
(§9) Dose response curves were prepared as semi-log plots with % of control on the ordinate (linear) and the test article concentration on the abscissa (logarithmic). The EC50 was interpolated from the plots for each test article.
(§10) For the test articles administered in methanol, separate responses were prepared to correct for the methanol data. […]

[2] = test system: MX1 breast tumor cells; assay: MTT cell viability, breast tumor cells (Table 1); format: cell-based; conditions: Homo sapiens, 120 h, approx. 5 days, read-out: EC-50 Result
Protocol: as §1, §2, §3, §4, §5, §6, §7, §8, §9, §10

[3] = test system: A549 lung tumor cells; assay: MTT cell viability, lung tumor cells (Table 1); format: cell-based; conditions: Homo sapiens, A549, 120 h, approx. 5 days, read-out: EC-50 Result
Protocol: as §1, §2, §3, §4, §5, §6, §7, §8, §9, §10

[4] = Toxicity to normal healthy cells (Table 2); format: cell-based; conditions: read-out: EC-50 (the source's name)
Text: The EC50 is the concentration at which one half of the cells are killed.
(§11) In normal healthy cells, the following results were obtained.

[5] = test system: normal healthy cells; assay: Toxicity to normal healthy cells, overall comparison; format: cell-based; conditions: versus adriamycin
Text: as §11

[6] = test system: MX1 breast cancer tumors; assay: Mouse model for breast cancer, subcutaneous tumor growth; format: in vivo; conditions: 500 mg/kg; MX1 implanted subcutaneously
Protocol: (§12) In a mouse model for breast, lung and colon cancer Carbendazim slowed tumor growth. MX1 breast cancer tumors implanted subcutaneously under the mice skin were treated with 500 mg/kg of Carbendazim. Tumor growth was slowed by 42%. Carbendazim slowed tumor growth in lung A549 tumors implanted subcutaneously under the mice skin by 57% at the same dose. In a screening test of HT29 tumors implanted subcutaneously under the mice skin, tumor growth was slowed 54% at 2500 mg/kg dose of Carbendazim.

[7] = test system: lung A549 tumors; assay: Mouse model for lung cancer, subcutaneous tumor growth; format: in vivo; conditions: same dose (500 mg/kg); A549 implanted subcutaneously
Protocol: as §12

[8] = test system: HT29 tumors; assay: Mouse model for colon cancer, subcutaneous tumor growth; format: in vivo; conditions: 2500 mg/kg; HT29 implanted subcutaneously; screening test
Protocol: as §12

[9] = test system: leukemia, P388; assay: In vivo mouse model for leukemia, life span
[10] = test system: melanoma, B 16; assay: In vivo mouse model for melanoma, life span
[11] = test system: HIV; assay: In vitro acute model for HIV, viral replication; format: cell-based; conditions: read-out: inhibited viral replication
Protocol: In an in vitro acute model for HIV carbendazim inhibited viral replication by 100% at 4 μg/ml and AZT inhibited viral replication by 98% at 1 μg/ml. Thiabendazole inhibited viral replication by 98% at 60 μg/ml.

[12] = test system: lung tumor cells (A-549); assay: Related study, lung tumor cells, optical density (Table 3); format: cell-based, human; conditions: for Optical Density: 0-Control 0.600
Text: (§13) Table 3 summarizes the results

[13] = test system: breast tumor cells (MCF-7); assay: Related study, breast tumor cells, optical density (Table 3); format: cell-based; conditions: for Optical Density: 0-Control 0.245
Text: as §13

[14] = test system: colon tumor cells (HT-29); assay: Related study, colon tumor cells, optical density (Table 3); format: cell-based, human; conditions: for Optical Density: 0-Control 0.398
Text: as §13

[15] = test system: HIV-1 in chronic infected U1 cells (HIV monocytes); assay: HIV chronic study, monocyte HIV replication; format: cell-based; conditions: Human immunodeficiency virus 1, Monocyte; 60 μg/ml; read-out: suppressed replication in the HIV monocytes
Protocol: (§14) These cells were treated with test samples.

[16] = test system: HIV-1 in chronic infected ACH-2 cells (T-cell); assay: HIV chronic study, T-cell HIV replication; format: cell-based; conditions: Human immunodeficiency virus 1, ACH-2; 60 μg/ml; increase; read-out: T-cell HIV replication was increased
Protocol: as §14

[17] = bronchial cells, Broncheal Cells, first value
[18] = bronchial cells, Broncheal Cells, second value
[19] = kerotinoyle cells, second value

COC(=O)Nc1nc2ccccc2[nH]1 [carbendazim, methyl 2-benzimidazole carbamate]
IC50 ([1]; HT29, first column): 0.621 mg/L (≈ 3.25 µM) | IC50 ([1]; HT29, second column): 0.662 mg/L (≈ 3.46 µM) | IC50 ([2]; MX1, first column): 0.829 mg/L (≈ 4.34 µM) | IC50 ([2]; MX1, second column): 0.856 mg/L (≈ 4.48 µM) | IC50 ([3]; A549, first column): 0.856 mg/L (≈ 4.48 µM) | IC50 ([3]; A549, second column): 0.836 mg/L (≈ 4.37 µM) | CC50 [4, 17]: 0.32 mg/L (≈ 1.67 µM) | CC50 [4, 18]: 0.506 mg/L (≈ 2.65 µM) | CC50 ([4]; fibroblasts, first value): 1.52 mg/L (≈ 7.95 µM) | CC50 ([4]; fibroblasts, second value): 1.42 mg/L (≈ 7.43 µM) | CC50 ([4]; kerotinoyle cells, first value): 0.752 mg/L (≈ 3.93 µM) | CC50 [4, 19]: 0.822 mg/L (≈ 4.3 µM) | toxicity to normal healthy cells relative to adriamycin [5]: much less toxic to normal healthy cells than adriamycin | Tumor growth was slowed by [6]: 42% | slowed tumor growth by [7]: 57% | tumor growth was slowed [8]: 54% | increased the life span of the mice versus control ([9]; 1000 mg/kg): 129% | increased the life span of the mice versus control ([9]; 2000 mg/kg): 148% | increased the life span of the mice versus control ([9]; 4000 mg/kg): 189% | increased the life span versus control ([10]; 1000 mg/kg): 131% | increased the life span versus control ([10]; 2000 mg/kg): 163% | increased the life span versus control ([10]; 4000 mg/kg): 187% | inhibition at 4 µg/mL ([11]; Human immunodeficiency virus 1, 4 μg/ml): 100%

CCCCNC(=O)n1c(NC(=O)OC)nc2ccccc21 [benomyl, methyl 1-(butylcarbamoyl)2-benzimidazolecarbamate]
IC50 ([1]; HT29, first column): 0.742 mg/L (≈ 2.56 µM) | IC50 ([1]; HT29, second column): 0.747 mg/L (≈ 2.57 µM) | IC50 ([2]; MX1, first column): 1.42 mg/L (≈ 4.89 µM) | IC50 ([2]; MX1, second column): 2.42 mg/L (≈ 8.34 µM) | IC50 ([3]; A549, first column): 0.98 mg/L (≈ 3.38 µM) | IC50 ([3]; A549, second column): 1.02 mg/L (≈ 3.51 µM) | CC50 [4, 17]: 0.728 mg/L (≈ 2.51 µM) | CC50 [4, 18]: 0.682 mg/L (≈ 2.35 µM) | CC50 ([4]; fibroblasts, first value): 3.24 mg/L (≈ 11.2 µM) | CC50 ([4]; fibroblasts, second value): 2.81 mg/L (≈ 9.68 µM) | CC50 ([4]; kerotinoyle cells, first value): 3.26 mg/L (≈ 11.2 µM) | CC50 [4, 19]: 2.4 mg/L (≈ 8.27 µM) | toxicity to normal healthy cells relative to adriamycin [5]: much less toxic to normal healthy cells than adriamycin

c1ccc2[nH]c(-c3cscn3)nc2c1 [Thiabendazole, 2-(4-thiazolyl)-1 H-benzimidazole]
killing of tumor cells [12]: effectively killed these cells | Optical Density ([12]; 0.87 ppm): 1.32 | Optical Density ([12]; 3.46 ppm): 1.12 | Optical Density ([12]; 17.3 ppm): 0.851 | Optical Density ([12]; 35 ppm): 0.411 | Optical Density ([12]; 173 ppm): 0.007 | killing of tumor cells [13]: effectively killed these cells | Optical Density ([13]; 0.87 ppm): 0.507 | Optical Density ([13]; 3.46 ppm): 0.466 | Optical Density ([13]; 17.3 ppm): 0.258 | Optical Density ([13]; 35 ppm): 0.025 | Optical Density ([13]; 173 ppm): 0.007 | killing of tumor cells [14]: effectively killed these cells | Optical Density ([14]; 0.87 ppm): 0.852 | Optical Density ([14]; 3.46 ppm): 0.713 | Optical Density ([14]; 17.3 ppm): 0.204 | Optical Density ([14]; 35 ppm): 0.011 | Optical Density ([14]; 173 ppm): 0.005 | inhibition at 60 µg/mL [15]: 74% | activation at 60 µg/mL [16]: 26% | inhibition at 60 µg/mL ([11]; Human immunodeficiency virus 1, 60 μg/ml): 98%
